The values that follow come from PubChem BioAssay AID330 (DTP/NCI, 2004).

Structures are written as SMILES. Values joined by “and” are separate entries in the source; they are usually repeats but may differ in a detail not shown here. Equal entries are not always repeated. Inconclusive results and toxic doses are left out.

The assay relates to P388 leukemia ip, CD2F1 mice, survival T/C. As to the kind of experiment: NCI In Vivo Anticancer Drug Screen. Data for tumor model P388 Leukemia (intraperitoneal) in CD2F1 (CDF1) mice. Particulars: endpoint: median survival time, higher = longer survival. The method in brief: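 Mice carrying the transplanted tumor received test compound or vehicle. Survival was recorded in each group, and the value is the treated-group measurement divided by that of the vehicle-treated control group.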

Where [1] appears, read: dose: 50.0 mg/kg/injection, schedule: Q01DX009 (ip), vehicle: Klucel (hydroxypropylcellulose) (HPC).
Where [2] appears, read: dose: 100.0 mg/kg/injection, schedule: Q01DX009 (ip), vehicle: Klucel (hydroxypropylcellulose) (HPC).
The mark [3] stands for this setting: dose: 200.0 mg/kg/injection, schedule: Q01DX009 (ip), vehicle: Klucel (hydroxypropylcellulose) (HPC).
[4] abbreviates: dose: 12.5 mg/kg/injection, schedule: Q01DX005 (ip), vehicle: saline with Tween-80.
[5] abbreviates: dose: 50.0 mg/kg/injection, schedule: Q01DX005 (ip), vehicle: saline with Tween-80.
[6] abbreviates: dose: 100.0 mg/kg/injection, schedule: Q01DX005 (ip), vehicle: saline with Tween-80.
[7] abbreviates: dose: 100.0 mg/kg/injection, schedule: Q01DX009 (ip), vehicle: saline with Tween-80.
The mark [8] stands for this setting: dose: 50.0 mg/kg/injection, schedule: Q01DX009 (ip), vehicle: saline with Tween-80.
The mark [9] stands for this setting: dose: 200.0 mg/kg/injection, schedule: Q01DX009 (ip), vehicle: saline with Tween-80.
[10] abbreviates: dose: 200.0 mg/kg/injection, schedule: Q01DX005 (ip), vehicle: saline with Tween-80.

For the compound `CC(C)(O)c1cccc2c(C(C)(C)O)cccc12`, the T/C under setting [1] is 88 % of control; the T/C under setting [2] was 97 % of control; the T/C under setting [3] was 93 % of control and 94 % of control; the T/C (dose: 400.0 mg/kg/injection, schedule: Q01DX009 (ip), vehicle: Klucel (hydroxypropylcellulose) (HPC)) was 91 % of control.

With `CN(C)[C@@H]1C(=O)C(C(N)=O)=C(O)[C@@]2(O)C(=O)C3=C(O)c4c(O)ccc(Cl)c4[C@@](C)(O)[C@H]3C[C@@H]12.[Cl][Sb]([Cl])[Cl]`, the T/C is 108 % of control under setting [4]; 116 % of control and 120 % of control under setting [5]; 104 % of control under setting [6].

Turning to `CCCCCCCC(=O)C(=O)c1ccc(O)cc1O`, the T/C under setting [1] is 109 % of control, the T/C under setting [2] is 112 % of control and the T/C under setting [3] is 113 % of control.

For `O=C(NCCN1CCCCC1)c1ccc(Cl)cc1Cl`, the T/C by setting is: under setting [1], 101 % of control; under setting [2], 98 % of control.

As to `C=CC(=O)NCCCCCC(=O)O`, the T/C by setting is: (dose: 50.0 mg/kg/injection, schedule: Q01DX009 (ip), vehicle: saline) 103 % of control; (dose: 100.0 mg/kg/injection, schedule: Q01DX009 (ip), vehicle: saline) 98 % of control; (dose: 200.0 mg/kg/injection, schedule: Q01DX009 (ip), vehicle: saline) 103 % of control.

Turning to `C=CC(=O)NCNC(=O)C=C`, the T/C is, setting by setting: under setting [7], 172 % of control; (dose: 132.0 mg/kg/injection, schedule: Q04DX003 (ip), vehicle: saline with Tween-80) 118 % of control; (dose: 200.0 mg/kg/injection, schedule: Q04DX003 (ip), vehicle: saline sonified) 159 % of control; (dose: 300.0 mg/kg/injection, schedule: Q04DX003 (ip), vehicle: saline with Tween-80) 181 % of control.

Regarding `NC(=O)C1CCN(Cc2c[nH]c3ccccc23)CC1`, the T/C is 104 % of control (dose: 25.0 mg/kg/injection, schedule: Q01DX009 (ip), vehicle: saline with Tween-80); 100 % of control under setting [8]; 104 % of control under setting [7]; 102 % of control under setting [9].

As for `CC(=O)OCN(C)N=Nc1ccc(Br)cc1`, the T/C (dose: 36.0 mg/kg/injection, schedule: Q01DX005 (ip), vehicle: Klucel (hydroxypropylcellulose) (HPC)) is 94 % of control and the T/C (dose: 72.0 mg/kg/injection, schedule: Q01DX005 (ip), vehicle: Klucel (hydroxypropylcellulose) (HPC)) was 92 % of control.

Turning to `CC(C(=O)O)C1(C(=O)O)CCCCCC1` (configuration not stated), the T/C was 100 % of control (dose: 100.0 mg/kg/injection, schedule: Q01DX001 (ip), vehicle: saline with Tween-80); 93 % of control (dose: 200.0 mg/kg/injection, schedule: Q01DX001 (ip), vehicle: saline with Tween-80); 109 % of control (dose: 400.0 mg/kg/injection, schedule: Q01DX001 (ip), vehicle: saline with Tween-80).

In the case of `CN1CC(=O)NC2(CCCC2)C1=O`, the T/C was 102 % of control (dose: 37.5 mg/kg/injection, schedule: Q04DX002 (ip), vehicle: Klucel (hydroxypropylcellulose) (HPC)); 101 % of control (dose: 75.0 mg/kg/injection, schedule: Q04DX002 (ip), vehicle: Klucel (hydroxypropylcellulose) (HPC)); 99 % of control (dose: 150.0 mg/kg/injection, schedule: Q04DX002 (ip), vehicle: Klucel (hydroxypropylcellulose) (HPC)); 105 % of control (dose: 300.0 mg/kg/injection, schedule: Q04DX002 (ip), vehicle: Klucel (hydroxypropylcellulose) (HPC)).

With `CC(C)CCC[C@@H](C)[C@H]1CC[C@H]2[C@@H]3CC[C@H]4C[C@@H](N)CC[C@]4(C)[C@H]3CC[C@]12C`, the T/C runs as follows: (dose: 6.25 mg/kg/injection, schedule: Q01DX005 (ip), vehicle: Klucel (hydroxypropylcellulose) (HPC)) 98 % of control; (dose: 12.5 mg/kg/injection, schedule: Q01DX005 (ip), vehicle: Klucel (hydroxypropylcellulose) (HPC)) 97 % of control; (dose: 25.0 mg/kg/injection, schedule: Q01DX005 (ip), vehicle: Klucel (hydroxypropylcellulose) (HPC)) 95 % of control; (dose: 50.0 mg/kg/injection, schedule: Q01DX005 (ip), vehicle: Klucel (hydroxypropylcellulose) (HPC)) 112 % of control; (dose: 100.0 mg/kg/injection, schedule: Q01DX005 (ip), vehicle: Klucel (hydroxypropylcellulose) (HPC)) 109 % of control.

For the compound `CC(C)(C)OC(=O)NC(Cc1ccccc1)C(=O)O` (configuration not stated), the T/C was 101 % of control and 105 % of control (dose: 6.25 mg/kg/injection, schedule: Q01DX009 (ip), vehicle: Klucel (hydroxypropylcellulose) (HPC)); 107 % of control (dose: 12.5 mg/kg/injection, schedule: Q01DX009 (ip), vehicle: Klucel (hydroxypropylcellulose) (HPC)); 100 % of control and 88 % of control (dose: 25.0 mg/kg/injection, schedule: Q01DX009 (ip), vehicle: Klucel (hydroxypropylcellulose) (HPC)); 111 % of control and 88 % of control under setting [1]; 110 % of control and 97 % of control under setting [2]; 107 % of control and 97 % of control under setting [3].

Take `CC1(C)CC(=O)NC(=O)N1`: the T/C by setting is: under setting [5], 99 % of control; under setting [6], 94 % of control; under setting [10], 104 % of control.

With `CCOc1ccc2c(c1)n([O-])c1cc(Cl)ccc1[n+]2=O`, the T/C was 111 % of control under setting [4]; 108 % of control (dose: 25.0 mg/kg/injection, schedule: Q01DX005 (ip), vehicle: saline with Tween-80); 103 % of control and 115 % of control under setting [5]; 107 % of control under setting [6].

Regarding `CC(=O)Nc1ncn[nH]1`, the T/C is, setting by setting: under setting [8], 100 % of control; under setting [7], 90 % of control; (dose: 100.0 mg/kg/injection, schedule: Q04DX003 (ip), vehicle: saline with Tween-80) 100 % of control; under setting [9], 90 % of control; (dose: 200.0 mg/kg/injection, schedule: Q04DX003 (ip), vehicle: saline with Tween-80) 90 % of control.

Regarding `Cc1cc(=O)[nH]c2cc3oc4ccccc4c3cc12`, the T/C was 98 % of control (dose: 60.0 mg/kg/injection, schedule: Q01DX005 (ip), vehicle: saline with Tween-80); 102 % of control (dose: 120.0 mg/kg/injection, schedule: Q01DX005 (ip), vehicle: saline with Tween-80); 103 % of control (dose: 240.0 mg/kg/injection, schedule: Q01DX005 (ip), vehicle: saline with Tween-80).

Regarding `CN(C)c1ccc(C(Cl)[O][Sn]([CH3])([CH3])[Cl])cc1` (configuration not stated), the T/C is 106 % of control and 116 % of control (dose: 12.5 mg/kg/injection, schedule: Q04DX002 (ip), vehicle: saline with Tween-80); 110 % of control (dose: 12.5 mg/kg/injection, schedule: Q04DX002 (ip), vehicle: saline); 101 % of control and 106 % of control (dose: 25.0 mg/kg/injection, schedule: Q04DX002 (ip), vehicle: saline with Tween-80); 115 % of control (dose: 25.0 mg/kg/injection, schedule: Q04DX002 (ip), vehicle: saline); 116 % of control and 120 % of control (dose: 50.0 mg/kg/injection, schedule: Q04DX002 (ip), vehicle: saline with Tween-80); 100 % of control (dose: 50.0 mg/kg/injection, schedule: Q04DX002 (ip), vehicle: saline). Further, the T/C (dose: 100.0 mg/kg/injection, schedule: Q04DX002 (ip), vehicle: saline) is 98 % of control.

In the case of `C=C(C)CC1(C)CC(=O)C(C)=C(C)C1=O` (configuration not stated), the T/C reads like this: (dose: 25.0 mg/kg/injection, schedule: Q04DX003 (ip), vehicle: Klucel (hydroxypropylcellulose) (HPC)) 110 % of control; (dose: 50.0 mg/kg/injection, schedule: Q04DX003 (ip), vehicle: Klucel (hydroxypropylcellulose) (HPC)) 105 % of control; (dose: 100.0 mg/kg/injection, schedule: Q04DX003 (ip), vehicle: Klucel (hydroxypropylcellulose) (HPC)) 100 % of control.

Turning to `CC(=O)OCC1OC(n2ncc(=O)[nH]c2=O)C(OC(C)=O)C1OC(C)=O` (configuration not stated), the T/C was 122 % of control under setting [8]; 118 % of control (dose: 100.0 mg/kg/injection, schedule: Q01DX009 (ip), vehicle: saline sonified); 122 % of control under setting [7]; 122 % of control (dose: 200.0 mg/kg/injection, schedule: Q01DX009 (ip), vehicle: saline sonified); 118 % of control (dose: 400.0 mg/kg/injection, schedule: Q01DX009 (ip), vehicle: saline sonified); 100 % of control (dose: 800.0 mg/kg/injection, schedule: Q01DX009 (ip), vehicle: saline with Tween-80).

As to `O=C1CN(CCN2CCOCC2)CC(=O)N2Cc3ccccc3CN12`, the T/C reads like this: under setting [5], 108 % of control; under setting [6], 98 % of control; under setting [10], 101 % of control.
